Earlier results, collected in US20040009207A1, “Medicinal beverage containing molecular oxygen” (priority 2000, published 2004).
Where two headings read alike, the source gives them in different places.

solubility of O2 in one litre water (0° C.): 0.0491 L
solubility of O2 in one litre water (50° C.): 0.0209 L
Compound: O=O [O2, molecular oxygen]
